The values that follow come from patent US20090298834A1, “4-(AMINOMETHYL)CYCLOHEXANAMINE DERIVATIVES AS CALCIUM CHANNEL BLOCKERS” (priority 2008, published 2009).

Bounds are passed on as bounds.

In test [1] the target is T1, human α1G T-type channels (Homo sapiens, UniProt O43497).
T1 construct: expressed in transfected cells; host or cells: HEK 293
As to the kind of experiment: T-type calcium channel block, whole cell patch clamp (α1G). The following applies: HEK cells stably expressing human α1G; mainly non-inactivated protocol; values above 10 μM represented as 10 μM, values below 0.30 μM represented as 0.30 μM. It counts as cell-based. The method, boiled down: (§1)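 Resting block was measured mainly with the non-inactivated protocol: holding potential −110 mV, 1 s step to −100 mV, then a 50 ms test pulse at −40 mV. Recordings used stably transfected human α1G or α1H HEK293 lines, with compounds perfused in external solution containing 0.1-0.01% DMSO. IC50 values (μM) above 10 μM are reported as 10 μM.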

Test [2] concerns the target T2, human α1H T-type channels (Homo sapiens, UniProt O95180).
T2 construct: expressed in transfected cells; host or cells: HEK 293
As to the kind of experiment: T-type calcium channel block, whole cell patch clamp (α1H). It is filed as cell-based. The following applies: HEK cells stably expressing human α1H; mainly non-inactivated protocol; values above 10 μM represented as 10 μM. In short, it runs like this:
as §1
Background: In patch-clamp work, channel activity is measured electrically.

Test [3] has as its system T-type over L-type channels. Particulars: cited from earlier work.
For test [4], the system named is spinal nerve ligation model of neuropathic pain. The following applies: rats; Dogrul et al., Pain (2003); cited from earlier work.

T2 sequence (O95180 whole entry): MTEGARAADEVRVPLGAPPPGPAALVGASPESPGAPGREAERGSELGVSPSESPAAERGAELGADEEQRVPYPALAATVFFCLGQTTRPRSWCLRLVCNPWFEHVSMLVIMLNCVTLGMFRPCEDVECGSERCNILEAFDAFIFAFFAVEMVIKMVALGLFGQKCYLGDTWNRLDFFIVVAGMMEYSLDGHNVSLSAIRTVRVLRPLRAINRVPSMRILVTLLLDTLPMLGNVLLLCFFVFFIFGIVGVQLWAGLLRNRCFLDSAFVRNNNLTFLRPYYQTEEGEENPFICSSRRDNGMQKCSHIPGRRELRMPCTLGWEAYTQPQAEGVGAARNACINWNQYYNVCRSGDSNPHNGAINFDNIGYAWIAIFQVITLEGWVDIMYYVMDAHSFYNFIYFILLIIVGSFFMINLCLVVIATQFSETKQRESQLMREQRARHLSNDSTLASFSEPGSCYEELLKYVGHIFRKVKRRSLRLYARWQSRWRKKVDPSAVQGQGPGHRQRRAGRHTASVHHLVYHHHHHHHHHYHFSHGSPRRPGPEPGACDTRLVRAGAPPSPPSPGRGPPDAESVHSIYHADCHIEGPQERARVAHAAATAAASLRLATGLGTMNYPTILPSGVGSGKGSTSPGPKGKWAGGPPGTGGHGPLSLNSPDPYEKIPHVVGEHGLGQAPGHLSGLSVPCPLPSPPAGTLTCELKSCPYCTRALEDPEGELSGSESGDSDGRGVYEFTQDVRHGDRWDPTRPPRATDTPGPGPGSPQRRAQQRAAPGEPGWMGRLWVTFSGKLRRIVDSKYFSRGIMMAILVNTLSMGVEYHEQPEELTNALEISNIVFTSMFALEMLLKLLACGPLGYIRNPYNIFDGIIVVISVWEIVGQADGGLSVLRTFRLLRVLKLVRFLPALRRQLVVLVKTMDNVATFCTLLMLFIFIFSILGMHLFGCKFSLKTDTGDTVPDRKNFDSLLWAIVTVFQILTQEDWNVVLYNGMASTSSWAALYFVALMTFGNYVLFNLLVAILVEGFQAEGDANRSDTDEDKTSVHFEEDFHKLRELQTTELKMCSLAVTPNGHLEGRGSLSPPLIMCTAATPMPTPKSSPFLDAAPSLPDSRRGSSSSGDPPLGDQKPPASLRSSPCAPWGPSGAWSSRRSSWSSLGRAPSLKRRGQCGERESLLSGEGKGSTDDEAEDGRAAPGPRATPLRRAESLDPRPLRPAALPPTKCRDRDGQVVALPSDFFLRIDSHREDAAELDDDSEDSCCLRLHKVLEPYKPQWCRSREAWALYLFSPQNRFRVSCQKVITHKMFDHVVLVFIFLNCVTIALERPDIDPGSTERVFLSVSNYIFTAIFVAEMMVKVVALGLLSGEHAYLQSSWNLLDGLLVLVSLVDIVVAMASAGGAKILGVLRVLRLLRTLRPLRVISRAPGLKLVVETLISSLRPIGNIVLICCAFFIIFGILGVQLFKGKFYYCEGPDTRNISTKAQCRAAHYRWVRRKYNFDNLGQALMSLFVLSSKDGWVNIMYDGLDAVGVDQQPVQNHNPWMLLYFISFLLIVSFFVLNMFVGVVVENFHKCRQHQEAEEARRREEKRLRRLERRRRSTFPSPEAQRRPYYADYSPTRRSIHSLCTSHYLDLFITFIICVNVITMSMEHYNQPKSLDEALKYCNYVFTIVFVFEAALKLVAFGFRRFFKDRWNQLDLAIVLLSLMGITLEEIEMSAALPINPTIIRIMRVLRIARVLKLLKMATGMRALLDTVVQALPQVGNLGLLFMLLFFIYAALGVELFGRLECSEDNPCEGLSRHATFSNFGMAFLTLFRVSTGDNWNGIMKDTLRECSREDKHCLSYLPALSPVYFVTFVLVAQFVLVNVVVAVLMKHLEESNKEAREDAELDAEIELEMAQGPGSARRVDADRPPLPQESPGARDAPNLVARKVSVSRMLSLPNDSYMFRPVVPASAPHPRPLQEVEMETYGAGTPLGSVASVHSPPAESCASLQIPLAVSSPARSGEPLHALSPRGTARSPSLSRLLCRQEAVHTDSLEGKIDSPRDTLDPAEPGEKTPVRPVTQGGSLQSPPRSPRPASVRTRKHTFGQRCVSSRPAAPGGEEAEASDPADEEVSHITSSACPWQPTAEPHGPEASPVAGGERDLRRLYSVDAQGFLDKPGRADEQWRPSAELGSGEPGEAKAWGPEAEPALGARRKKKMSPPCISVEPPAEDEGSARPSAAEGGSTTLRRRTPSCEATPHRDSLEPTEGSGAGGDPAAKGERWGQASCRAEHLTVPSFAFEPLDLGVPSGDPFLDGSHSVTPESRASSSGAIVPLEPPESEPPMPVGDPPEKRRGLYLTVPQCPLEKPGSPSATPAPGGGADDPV
T1 sequence (O43497 whole entry): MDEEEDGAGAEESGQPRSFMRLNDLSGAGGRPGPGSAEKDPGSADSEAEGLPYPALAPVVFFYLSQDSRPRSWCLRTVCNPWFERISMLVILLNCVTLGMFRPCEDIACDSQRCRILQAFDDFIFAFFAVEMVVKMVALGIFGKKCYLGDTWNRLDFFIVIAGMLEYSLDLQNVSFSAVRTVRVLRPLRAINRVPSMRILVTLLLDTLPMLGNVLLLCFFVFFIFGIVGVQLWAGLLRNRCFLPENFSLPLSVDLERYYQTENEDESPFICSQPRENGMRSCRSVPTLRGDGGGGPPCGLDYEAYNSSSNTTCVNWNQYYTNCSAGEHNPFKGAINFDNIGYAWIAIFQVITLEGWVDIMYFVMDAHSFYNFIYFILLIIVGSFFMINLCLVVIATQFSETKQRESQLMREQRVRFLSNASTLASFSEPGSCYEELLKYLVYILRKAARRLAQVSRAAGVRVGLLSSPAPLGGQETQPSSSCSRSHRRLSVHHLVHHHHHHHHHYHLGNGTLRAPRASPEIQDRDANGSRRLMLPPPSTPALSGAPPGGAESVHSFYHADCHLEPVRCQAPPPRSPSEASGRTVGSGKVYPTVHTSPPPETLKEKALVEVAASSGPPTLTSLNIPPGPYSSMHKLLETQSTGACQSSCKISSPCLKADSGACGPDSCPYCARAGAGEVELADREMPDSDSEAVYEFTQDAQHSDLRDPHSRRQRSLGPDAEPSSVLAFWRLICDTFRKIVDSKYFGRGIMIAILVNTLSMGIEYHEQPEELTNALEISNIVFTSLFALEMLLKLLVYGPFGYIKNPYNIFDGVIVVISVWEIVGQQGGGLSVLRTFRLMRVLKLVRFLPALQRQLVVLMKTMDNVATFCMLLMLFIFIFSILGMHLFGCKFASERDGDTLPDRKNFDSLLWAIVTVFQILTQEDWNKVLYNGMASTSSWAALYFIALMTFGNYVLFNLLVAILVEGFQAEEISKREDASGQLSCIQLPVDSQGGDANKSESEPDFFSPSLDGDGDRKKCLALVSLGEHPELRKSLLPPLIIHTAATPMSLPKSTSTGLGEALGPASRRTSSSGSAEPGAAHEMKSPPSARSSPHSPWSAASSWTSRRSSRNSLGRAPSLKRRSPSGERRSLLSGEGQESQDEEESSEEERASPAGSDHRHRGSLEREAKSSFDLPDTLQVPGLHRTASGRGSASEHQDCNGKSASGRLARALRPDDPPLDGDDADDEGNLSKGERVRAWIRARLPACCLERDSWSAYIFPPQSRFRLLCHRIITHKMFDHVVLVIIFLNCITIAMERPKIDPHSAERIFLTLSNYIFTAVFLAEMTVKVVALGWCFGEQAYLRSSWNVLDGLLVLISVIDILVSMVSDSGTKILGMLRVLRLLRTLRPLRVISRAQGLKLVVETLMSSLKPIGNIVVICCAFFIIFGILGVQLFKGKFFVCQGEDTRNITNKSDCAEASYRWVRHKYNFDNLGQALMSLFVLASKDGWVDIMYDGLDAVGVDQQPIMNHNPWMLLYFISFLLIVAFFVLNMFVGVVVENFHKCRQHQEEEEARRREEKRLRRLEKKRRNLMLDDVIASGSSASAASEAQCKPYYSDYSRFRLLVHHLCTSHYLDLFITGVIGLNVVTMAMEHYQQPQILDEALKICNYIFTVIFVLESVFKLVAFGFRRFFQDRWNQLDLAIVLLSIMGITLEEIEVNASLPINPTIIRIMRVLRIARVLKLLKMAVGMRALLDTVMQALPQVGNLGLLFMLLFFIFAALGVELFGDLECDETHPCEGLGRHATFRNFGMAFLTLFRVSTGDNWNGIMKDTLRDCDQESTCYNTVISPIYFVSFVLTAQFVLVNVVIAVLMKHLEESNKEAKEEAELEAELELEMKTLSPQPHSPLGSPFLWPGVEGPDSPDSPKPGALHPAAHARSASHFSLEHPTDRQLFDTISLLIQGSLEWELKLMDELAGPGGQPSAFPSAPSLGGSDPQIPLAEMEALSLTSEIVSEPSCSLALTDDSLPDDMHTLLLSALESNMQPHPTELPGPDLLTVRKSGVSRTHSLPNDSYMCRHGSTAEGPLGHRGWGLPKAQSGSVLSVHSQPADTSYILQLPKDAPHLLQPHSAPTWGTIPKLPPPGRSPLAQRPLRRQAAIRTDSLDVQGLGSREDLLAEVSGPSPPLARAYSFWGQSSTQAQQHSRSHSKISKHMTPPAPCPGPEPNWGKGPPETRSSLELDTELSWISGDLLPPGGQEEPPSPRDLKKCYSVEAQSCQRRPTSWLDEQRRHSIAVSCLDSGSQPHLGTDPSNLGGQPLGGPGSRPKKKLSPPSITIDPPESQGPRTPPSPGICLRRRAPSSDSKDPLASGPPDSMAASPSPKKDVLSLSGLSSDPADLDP

The IC50 is the concentration needed to halve the response being measured. Consider `COc1cc(F)cc(C(=O)NC[C@H]2CC[C@H](NCC(=O)NC(C)(C)C)CC2)c1` [Compound 206, N-(((1r,4r)-4-(2-(tert-butylamino)-2-oxoethylamino)cyclohexyl)methyl)-3-fluoro-5-methoxybenzamide], for which the IC50 in test [1] was 4.42 µM; in test [2], 1.03 µM. In the same order, the values of `COc1cc(F)cc(C(=O)NC[C@H]2CC[C@H](NCC(=O)NC3(C)CCC3)CC2)c1` [Compound 207, 3-fluoro-5-methoxy-N-(((1r,4r)-4-(2-(1-methylcyclobutylamino)-2-oxoethylamino)cyclohexyl)methyl)benzamide] are 3.82 µM and 0.92 µM.

For `COc1cc(F)cc(C(=O)NC[C@H]2CC[C@H](NCC(=O)N3CCOCC3(C)C)CC2)c1` [Compound 208, N-(((1r,4r)-4-(2-(3,3-dimethylmorpholino)-2-oxoethylamino)cyclohexyl)methyl)-3-fluoro-5-methoxybenzamide], the IC50 in test [1] is at least 10 µM; in test [2], 4.33 µM. In the same order, the values of `COc1cc(F)cc(C(=O)NC[C@H]2CC[C@H](NCC(=O)N3CCCC3(C)C)CC2)c1` [Compound 209, N-(((1r,4r)-4-(2-(2,2-dimethylpyrrolidin-1-yl)-2-oxoethylamino)cyclohexyl)methyl)-3-fluoro-5-methoxybenzamide] are 4.05 µM and 1.6 µM.

As to `COc1cc(F)cc(C(=O)NC[C@H]2CC[C@H](NCC(=O)N(C)C(C)(C)C)CC2)c1` [Compound 210, N-(((1r,4r)-4-(2-(tert-butyl(methyl)amino)-2-oxoethylamino)cyclohexyl)methyl)-3-fluoro-5-methoxybenzamide], the IC50 in test [1] was 5.61 µM; in test [2], 2.39 µM. The matching figures for `CN(C(=O)CN[C@H]1CC[C@H](CNC(=O)c2cc(F)cc(Cl)c2)CC1)C1(C)CCC1` [Compound 211, 3-chloro-5-fluoro-N-(((1r,4r)-4-(2-(methyl(1-methylcyclobutyl)amino)-2-oxoethylamino)cyclohexyl)methyl)benzamide]: 1.18 µM and 0.54 µM. For the compound `COCC(C)(C)N(C)C(=O)CN[C@H]1CC[C@@H](CNC(=O)c2cc(F)cc(Cl)c2)CC1` [Compound 212, 3-chloro-5-fluoro-N-(((1s,4s)-4-(2-((1-methoxy-2-methylpropan-2-yl)(methyl)amino)-2-oxoethylamino)cyclohexyl)methyl)benzamide], the IC50 came out at 1.58 µM in test [1] and 0.42 µM in test [2]. In the same order, the values of `CN(C(=O)CN[C@H]1CC[C@@H](CNC(=O)c2cc(F)cc(Cl)c2)CC1)C1(C)CCC1` [Compound 213, 3-chloro-5-fluoro-N-(((1s,4s)-4-(2-(methyl(1-methylcyclobutyl)amino)-2-oxoethylamino)cyclohexyl)methyl)benzamide] are 1.03 µM and 0.33 µM. The matching figures for `COCC(C)(C)N(C)C(=O)CN[C@H]1CC[C@@H](CNC(=O)c2cc(F)cc(OC)c2)CC1` [Compound 214, 3-fluoro-5-methoxy-N-(((1s,4s)-4-(2-((1-methoxy-2-methylpropan-2-yl)(methyl)amino)-2-oxoethylamino)cyclohexyl)methyl)benzamide]: 5.82 µM and 0.71 µM.

With `COc1cc(F)cc(C(=O)NC[C@H]2CC[C@@H](NCC(=O)N(C)C3(C)CCC3)CC2)c1` [Compound 215, 3-fluoro-5-methoxy-N-(((1s,4s)-4-(2-(methyl(1-methylcyclobutyl)amino)-2-oxoethylamino)cyclohexyl)methyl)benzamide], the results for the IC50 in test [1] and in test [2] were 1.99 µM and 0.41 µM, respectively. For `COCC(=O)O[C@]1(CCN(C)CCCc2nc3ccccc3[nH]2)CCc2cc(F)ccc2[C@@H]1C(C)C` [Mibefradil], in test [3], the “fold selective for T-type over L-type channels” value is given as 10-30 fold. Moreover, the “anti-hyperalgesic activity in the spinal nerve ligation model” value in test [4] is “anti-hyperalgesic activity”. With `CCC1(C)CC(=O)NC1=O` (centres unmarked) [ethosuximide], the “anti-hyperalgesic activity in the spinal nerve ligation model” value in test [4] is “anti-hyperalgesic activity”.
